We go through 16 molecules from US12121505B2, “Fap-activated therapeutic agents, and uses related thereto” (BACH BIOSCIENCES, LLC, priority 2014, dated 2024).

Assay [1] deals with HEK-mFAP cells. Description: CellTiter-Blue cell viability assay with HEK-mFAP cells. It is filed as cell-based, Human. Particulars: for activation by FAP expressed by HEK-mFAP cells / effect of addition of the FAP inhibitor 5057 on activation: FIG. 15A, 15B.
For assay [2], the target named is dipeptidyl peptidase IV (DPP IV) (Homo sapiens, UniProt P27487). Description: Specificity of activation: 24 h digestion with DPP IV. Format: biochemical. Particulars: 100 μM prodrug, 37° C. The procedure: (§1) Total doxorubicin was measured for each assay.
For assay [3], the target named is T1, PREP (Homo sapiens, UniProt P48147).
T1 sequence (P48147 1-710): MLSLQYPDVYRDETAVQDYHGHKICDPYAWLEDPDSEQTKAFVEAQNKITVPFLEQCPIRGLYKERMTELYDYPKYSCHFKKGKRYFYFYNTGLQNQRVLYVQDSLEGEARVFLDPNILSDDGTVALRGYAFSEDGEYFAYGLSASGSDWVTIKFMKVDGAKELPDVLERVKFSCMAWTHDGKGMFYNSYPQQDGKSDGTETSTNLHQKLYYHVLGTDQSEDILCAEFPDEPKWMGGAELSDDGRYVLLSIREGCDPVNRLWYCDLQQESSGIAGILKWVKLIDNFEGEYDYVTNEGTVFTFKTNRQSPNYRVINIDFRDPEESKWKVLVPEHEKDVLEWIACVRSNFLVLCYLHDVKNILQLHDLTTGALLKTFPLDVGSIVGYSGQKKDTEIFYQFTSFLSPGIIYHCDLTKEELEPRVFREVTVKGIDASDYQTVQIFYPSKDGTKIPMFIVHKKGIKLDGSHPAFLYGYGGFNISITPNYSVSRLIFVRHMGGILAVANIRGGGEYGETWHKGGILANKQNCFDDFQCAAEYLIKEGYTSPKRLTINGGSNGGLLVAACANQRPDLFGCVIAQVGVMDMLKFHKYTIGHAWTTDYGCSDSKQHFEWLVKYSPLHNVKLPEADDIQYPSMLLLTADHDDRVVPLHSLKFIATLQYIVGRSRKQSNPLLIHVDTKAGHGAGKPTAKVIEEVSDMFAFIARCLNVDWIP
Description: Specificity of activation: 24 h digestion with PREP. It is filed as biochemical. The following applies: 100 μM prodrug, 37° C. As for the experimental part: as §1

The subject of assay [4] is HEK-Mock cells. Briefly: CellTiter-Blue cell viability assay with HEK-Mock cells. It is filed as cell-based. The following applies: Homo sapiens.
The test system of assay [5] is MCF-7. Description: CellTiter-Blue cell viability assay, MCF-7. Format: cell-based. Particulars: 5061DOX assay 2, MCF-7, 72 hour. (Resazurin is reduced to fluorescent resorufin, in cell work by metabolically active cells.)
Assay [6] has as its system OVCAR-3. Briefly: CellTiter-Blue cell viability assay, OVCAR-3. Format: cell-based. The following applies: 5061DOX assay 2, OVCAR-3, 72 hour.
Assay [7] deals with SK-OV-3. Description: CellTiter-Blue cell viability assay, SK-OV-3. It is filed as cell-based. Particulars: 5061DOX assay 2, SK-OV-3, 72 hour.
Setting [8] is: Homo sapiens, 72 h, MK-2206 / Akt inhibitor prodrugs, HEK-mFAP cells, 72 hour incubation, read-out: EC50 (prodrug alone).
[9] abbreviates: Homo sapiens, read-out: EC50 (prodrug + 100 uM 5057).
[10] abbreviates: Homo sapiens, read-out: EC50 (prodrug alone).
Setting [11] is: read-out: EC50 (doxorubicin alone).

Read-outs that look alike come from different tables or passages of the source. Bounds are passed on as bounds.

Sequence of dipeptidyl peptidase IV (DPP IV) (P27487 whole entry, species assumed): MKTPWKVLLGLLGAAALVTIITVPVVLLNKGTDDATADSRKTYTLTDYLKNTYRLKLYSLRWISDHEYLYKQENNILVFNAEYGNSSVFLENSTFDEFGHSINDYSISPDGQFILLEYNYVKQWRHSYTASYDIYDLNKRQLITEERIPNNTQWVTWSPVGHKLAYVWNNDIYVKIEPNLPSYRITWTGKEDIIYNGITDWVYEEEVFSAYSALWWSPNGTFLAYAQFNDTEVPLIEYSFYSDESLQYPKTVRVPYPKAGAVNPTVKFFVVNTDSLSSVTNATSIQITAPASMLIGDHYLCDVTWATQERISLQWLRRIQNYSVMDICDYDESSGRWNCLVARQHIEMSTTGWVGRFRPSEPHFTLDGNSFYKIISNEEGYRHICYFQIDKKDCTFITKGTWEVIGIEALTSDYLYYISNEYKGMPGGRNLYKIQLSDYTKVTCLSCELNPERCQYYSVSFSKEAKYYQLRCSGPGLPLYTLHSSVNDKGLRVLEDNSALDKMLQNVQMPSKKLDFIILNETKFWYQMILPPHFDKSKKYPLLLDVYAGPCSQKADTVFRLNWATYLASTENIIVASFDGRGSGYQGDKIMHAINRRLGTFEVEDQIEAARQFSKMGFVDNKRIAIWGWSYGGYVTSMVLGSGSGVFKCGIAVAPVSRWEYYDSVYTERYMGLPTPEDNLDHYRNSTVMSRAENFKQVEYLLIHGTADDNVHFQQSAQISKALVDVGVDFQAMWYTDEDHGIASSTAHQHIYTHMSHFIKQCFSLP

As a reminder, the EC50 is the concentration that produces a half-maximal response. Take `Cn1ncc(Cl)c1-c1cc(C(=O)N[C@H](CNC(=O)[C@@H]2CC(F)(F)CN2C(=O)CNC(=O)c2ccnc3ccccc23)Cc2cccc(F)c2)sc1Cl` [Compound 5184]: the EC50 in assay [1] (Homo sapiens, 72 h, Akt inhibitor prodrugs, HEK-mFAP cells, 72 hrs, read-out: EC50 (prodrug alone)) is 0.93 µM.

For `COc1cccc2c1C(=O)c1c(O)c3c(c(O)c1C2=O)C[C@@](O)(C(=O)CO)C[C@@H]3OC1CC(NC(=O)[C@@H]2CC(F)(F)CN2C(=O)[C@@H](C)NC(=O)c2ccnc3ccccc23)C(O)C(C)O1` (stereo partly drawn) [Compound 5107DOX], the half-maximal effective concentration (EC50) in assay [1] (Homo sapiens, 5107DOX assay, HEK-mFAP, 72 hour, read-out: EC50 (prodrug + 100 uM 5057-2)) was greater than 100 µM; in assay [1] (Homo sapiens, 5107DOX assay, HEK-mFAP, 72 hour, read-out: EC50 (prodrug alone)), 0.94 µM.

On to `O=C(NC1(C(=O)N[C@@H](CCO)c2ccc(Cl)cc2)CCN(c2ncnc3[nH]ccc23)CC1)OCc1ccc(NC(=O)[C@@H]2CC(F)(F)CN2C(=O)CNC(=O)c2ccnc3ccccc23)cc1` [Compound 5189], for which the EC50 in assay [1] (Homo sapiens, 72 h, Akt inhibitor prodrugs, HEK-mFAP cells, 72 hour, read-out: EC50 (prodrug + 100 uM 5057-2)) was 5.8 µM; in assay [1] (setting [8]) it was 3 µM.

Turning to `COc1cccc2c1C(=O)c1c(O)c3c(c(O)c1C2=O)C[C@@](O)(C(=O)CO)C[C@@H]3OC1CC(NC(=O)[C@@H]2CCCN2C(=O)[C@@H](C)NC(=O)[C@H](CO)NC(=O)CCC(=O)O)C(O)C(C)O1` (stereo partly drawn) [Compound 3996DOX], the “doxorubicin released by DPP IV” value in assay [2] is listed as “essentially none by PREP or DPP IV”. In addition, the “doxorubicin released by PREP” value in assay [3] is on record as “essentially none by PREP or DPP IV”.

As for `NNc1ccc(C(=O)NCC(=O)N2CC(F)(F)C[C@H]2C(=O)Nc2ccc(COC(=O)NC3(c4ccc(-c5nc6ccn7c(=O)[nH]nc7c6cc5-c5ccccc5)cc4)CCC3)cc2)cn1` [Compound 5192], the EC50 in assay [1] (setting [8]) is greater than 3 µM.

As for AZD5363 [reference compound], the 50% effective concentration (EC50) in assay [1] (HEK-mFAP cells, 72 hour, read-out: EC50 (AZD5363)) came to 2.5 µM.

In the case of `Cn1ncc(Cl)c1-c1cc(C(=O)N[C@H](CN)Cc2cccc(F)c2)sc1Cl` [GSK2 110183, reference compound], the concentration for a half-maximal effect (EC50) in assay [1] (HEK-mFAP cells, 72 hrs, read-out: EC50 (GSK2 110183)) came to 0.49 µM.

For the molecule `NC1(c2ccc(-c3nc4ccn5c(=O)[nH]nc5c4cc3-c3ccccc3)cc2)CCC1` [MK-2206, reference compound], the concentration for a half-maximal effect (EC50) is 6.7 µM in assay [4] (5157 assay, HEK-Mock, read-out: EC50 (MK-2206 alone)); 5.3 µM in assay [1] (Homo sapiens, 5157 assay, HEK-mFAP, read-out: EC50 (MK-2206 alone)); 9.1 µM in assay [1] (Homo sapiens, 72 h, HEK-mFAP cells, 72 hrs, read-out: EC50 (MK-2206)).

As to `COc1cccc2c1C(=O)c1c(O)c3c(c(O)c1C2=O)C[C@@](O)(C(=O)CO)C[C@@H]3OC1CC(NC(=O)[C@@H]2CCCN2C(=O)[C@@H](C)NC(=O)c2ccnc3cccc(Br)c23)C(O)C(C)O1` (stereo partly drawn) [Compound 5061DOX], the EC50 in assay [5] (Homo sapiens, MCF7, read-out: EC50 (prodrug + 25 nM FAP)) was greater than 100 µM; in assay [5] (Homo sapiens, MCF7, read-out: EC50 (prodrug + 100 uM 5057)), greater than 100 µM; in assay [5] (Homo sapiens, MCF7, read-out: EC50 (prodrug alone)), greater than 100 µM; in assay [4] (72 h, 5061DOX assay 1, HEK-Mock, 72 hour, read-out: EC50 (prodrug + 25 nM FAP)), 0.28 µM; in assay [4] (72 h, 5061DOX assay 1, HEK-Mock, 72 hour, read-out: EC50 (prodrug + 50 nM PREP)), greater than 100 µM; in assay [4] (72 h, 5061DOX assay 1, HEK-Mock, 72 hour, read-out: EC50 (prodrug + 100 uM 5057)), greater than 100 µM. Besides, the concentration giving a half-maximal response (EC50) is greater than 100 µM in assay [4] (72 h, 5061DOX assay 1, HEK-Mock, 72 hour, read-out: EC50 (prodrug alone)); 0.25 µM in assay [4] (72 h, 5061DOX assay 2, HEK-Mock, 72 hour, read-out: EC50 (prodrug + 25 nM FAP)); greater than 100 µM in assay [4] (72 h, 5061DOX assay 2, HEK-Mock, 72 hour, read-out: EC50 (prodrug alone)); greater than 100 µM in assay [6] (setting [9]); 1.5 µM in assay [6] (Homo sapiens, read-out: EC50 (prodrug = 25 nM FAP)); greater than 100 µM in assay [6] (setting [10]). The 50% effective concentration (EC50) in assay [1] (5061DOX assay 1, HEK-mFAP, 72 hour, read-out: EC50 (prodrug alone)) is greater than 100 µM; in assay [1] (5061DOX assay 2, HEK-mFAP, 72 hour, read-out: EC50 (prodrug + 100 uM 5057)), greater than 100 µM; in assay [1] (Homo sapiens, 5061DOX assay 1, HEK-mFAP, 72 hour, read-out: EC50 (prodrug + 100 uM 5057)), greater than 100 µM; in assay [1] (Homo sapiens, 5061DOX assay 2, HEK-mFAP, 72 hour, read-out: EC50 (prodrug alone)), greater than 100 µM; in assay [7] (Homo sapiens, read-out: EC50 (prodrug + 25 nM FAP)), 0.9 µM; in assay [7] (setting [9]), greater than 100 µM. Besides, the 50% effective concentration (EC50) in assay [7] (setting [10]) was greater than 100 µM.

Regarding `NCC(=O)NNc1ccc(C(=O)NCC(=O)N2CC(F)(F)C[C@H]2C(=O)Nc2ccc(COC(=O)NC3(c4ccc(-c5nc6ccn7c(=O)[nH]nc7c6cc5-c5ccccc5)cc4)CCC3)cc2)cn1` [Compound 5193], the EC50 in assay [1] (setting [8]) was found to be 2.6 µM.

Regarding `C[C@@H](NC(=O)c1ccnc2ccccc12)C(=O)N1CC(F)(F)C[C@H]1C(=O)Nc1ccc(COC(=O)NC2(c3ccc(-c4nc5ccn6c(=O)[nH]nc6c5cc4-c4ccccc4)cc3)CCC2)cc1` [Compound 5174], in assay [1], the “activation by FAP expressed by HEK-mFAP cells” value was “appears to be activated by the FAP expressed by the HEK-mFAP cells” and the “effect of addition of the FAP inhibitor 5057 on activation” value is on record as “blocks this activation”. For the same molecule, in assay [1] (setting [8]), the EC50 amounted to 4.6 µM.

Turning to `CCn1c(-c2nonc2N)nc2c(C#CC(C)(C)O)ncc(OC[C@H]3CCCNC3)c21` [GSK690693, reference compound], the EC50 in assay [1] (Homo sapiens, 72 h, HEK-mFAP cells, 72 hour, read-out: EC50 (GSK690693)) is 15 µM.

As for `O=C(NC1(c2ccc(-c3nc4ccn5c(=O)[nH]nc5c4cc3-c3ccccc3)cc2)CCC1)OCc1ccc(NC(=O)[C@@H]2CC(F)(F)CN2C(=O)CNC(=O)c2ccnc3ccccc23)cc1` [Compound 5173], in assay [1], the “activation by FAP expressed by HEK-mFAP cells” value is reported as “appears to be activated by the FAP expressed by the HEK-mFAP cells” and the “effect of addition of the FAP inhibitor 5057 on activation” value is on record as “blocks this activation”. The EC50 in assay [1] (setting [8]) was greater than 2.5 µM.

With `COc1cccc2c1C(=O)c1c(O)c3c(c(O)c1C2=O)C[C@@](O)(C(=O)CO)C[C@@H]3O[C@H]1C[C@H](N)[C@H](O)[C@H](C)O1` [doxorubicin, reference compound], the EC50 was determined as 54 µM in assay [5] (setting [11]), 1.7 µM in assay [6] (setting [11]) and 0.44 µM in assay [7] (setting [11]).

Turning to `C[C@@H](NC(=O)c1ccncc1)C(=O)N1CCC[C@H]1C(=O)Nc1ccc(COC(=O)NC2(c3ccc(-c4nc5ccn6c(=O)[nH]nc6c5cc4-c4ccccc4)cc3)CCC2)cc1` [Compound 5157], the concentration for a half-maximal effect (EC50) in assay [4] (5157 assay, HEK-Mock, read-out: EC50 (prodrug + 100 uM 3099-15)) was greater than 2.5 µM; in assay [4] (5157 assay, HEK-Mock, read-out: EC50 (prodrug alone)) it was greater than 2.5 µM; in assay [1] (Homo sapiens, 5157 assay, HEK-mFAP, read-out: EC50 (prodrug + 100 uM 3099-15)), greater than 2.5 µM; in assay [1] (Homo sapiens, 5157 assay, HEK-mFAP, read-out: EC50 (prodrug alone)), 2.9 µM.

For `CCn1c(-c2nonc2N)nc2c(C#CC(C)(C)O)ncc(OC[C@H]3CCCN(C(=O)[C@@H]4CC(F)(F)CN4C(=O)CNC(=O)c4ccnc5ccccc45)C3)c21` [Compound 5188], in assay [1] (setting [8]), the 50% effective concentration (EC50) is greater than 25 µM.
